ChEMBL document CHEMBL3797052 (Eur J Med Chem, 2016)
The source made the active and inactive calls. No cut-off for these calls is given here.

Tested on: not listed separately
Assay: Antiproliferative activity against human COLO205 cells assessed as growth inhibition after 48 hrs by sulforhodamine B assay
Format: functional
Settings: COLO 205, 48 h

Row | SMILES | GI50 | TGI
1 | CNC(=O)c1cc(Oc2ccc3nc(NC(=O)Nc4cc(C(F)(F)F)cc(C(F)(F)F)c4)sc3c2)ccn1 | 0.822 µM | 2.32 µM

Same assay, conditions: COLO 205, 48 h, read-out: LC50 (the source's name)

Row | SMILES | CC50
2 | CNC(=O)c1cc(Oc2ccc3nc(NC(=O)Nc4cc(C(F)(F)F)cc(C(F)(F)F)c4)sc3c2)ccn1 | 5.82 µM

Target: Epidermal growth factor receptor (Homo sapiens) (UniProt P00533)
Assay: Inhibition of human EGFR at 10 uM measured after 40 mins by scintillation counting
Settings: not given

Epidermal growth factor receptor (Homo sapiens), sequence (P00533 whole entry): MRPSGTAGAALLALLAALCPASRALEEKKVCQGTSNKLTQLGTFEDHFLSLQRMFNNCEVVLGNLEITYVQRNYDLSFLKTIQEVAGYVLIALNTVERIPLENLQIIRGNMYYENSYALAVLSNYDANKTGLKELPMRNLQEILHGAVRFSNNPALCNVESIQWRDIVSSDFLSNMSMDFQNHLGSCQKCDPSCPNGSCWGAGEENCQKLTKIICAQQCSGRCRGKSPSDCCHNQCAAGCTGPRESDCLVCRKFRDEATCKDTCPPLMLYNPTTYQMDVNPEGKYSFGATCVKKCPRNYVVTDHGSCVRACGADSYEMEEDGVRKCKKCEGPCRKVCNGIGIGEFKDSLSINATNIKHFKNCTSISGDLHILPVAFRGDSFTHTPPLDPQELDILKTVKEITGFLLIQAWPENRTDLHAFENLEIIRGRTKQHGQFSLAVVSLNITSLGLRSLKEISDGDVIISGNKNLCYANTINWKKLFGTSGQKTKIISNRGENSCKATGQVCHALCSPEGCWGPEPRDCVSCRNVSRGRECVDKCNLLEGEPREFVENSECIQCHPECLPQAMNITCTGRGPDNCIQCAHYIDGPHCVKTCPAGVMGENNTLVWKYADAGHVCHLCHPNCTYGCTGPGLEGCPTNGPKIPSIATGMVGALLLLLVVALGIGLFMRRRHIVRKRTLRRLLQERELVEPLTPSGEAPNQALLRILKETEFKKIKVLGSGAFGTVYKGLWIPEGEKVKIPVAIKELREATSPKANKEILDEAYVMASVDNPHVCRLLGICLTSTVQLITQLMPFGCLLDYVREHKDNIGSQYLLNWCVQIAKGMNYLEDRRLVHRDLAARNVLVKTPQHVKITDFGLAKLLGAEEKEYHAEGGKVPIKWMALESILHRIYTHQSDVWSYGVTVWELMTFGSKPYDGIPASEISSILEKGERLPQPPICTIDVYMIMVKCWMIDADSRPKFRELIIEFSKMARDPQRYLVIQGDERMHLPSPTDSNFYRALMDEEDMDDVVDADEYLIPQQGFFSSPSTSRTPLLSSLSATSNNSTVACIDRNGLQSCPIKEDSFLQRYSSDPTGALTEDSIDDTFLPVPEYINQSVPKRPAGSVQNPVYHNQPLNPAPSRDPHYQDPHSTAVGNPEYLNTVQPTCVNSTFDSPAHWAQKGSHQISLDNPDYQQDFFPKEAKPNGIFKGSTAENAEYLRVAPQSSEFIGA

Row | SMILES | inhibition
3 | CNC(=O)c1cc(Oc2ccc3nc(NC(=O)Nc4cc(C(F)(F)F)cc(C(F)(F)F)c4)sc3c2)ccn1 | < 40%

Tested on: Serine/threonine-protein kinase B-raf (Homo sapiens), P15056 [V600E]
Assay: Inhibition of BRAF V600E mutant assessed as reduction in MEK phosphorylation in human A375P cells after 24 hrs by Western blot analysis
Format: cell-based
Settings: not given

Serine/threonine-protein kinase B-raf (Homo sapiens), P15056 [V600E], sequence (P15056 whole entry V600E): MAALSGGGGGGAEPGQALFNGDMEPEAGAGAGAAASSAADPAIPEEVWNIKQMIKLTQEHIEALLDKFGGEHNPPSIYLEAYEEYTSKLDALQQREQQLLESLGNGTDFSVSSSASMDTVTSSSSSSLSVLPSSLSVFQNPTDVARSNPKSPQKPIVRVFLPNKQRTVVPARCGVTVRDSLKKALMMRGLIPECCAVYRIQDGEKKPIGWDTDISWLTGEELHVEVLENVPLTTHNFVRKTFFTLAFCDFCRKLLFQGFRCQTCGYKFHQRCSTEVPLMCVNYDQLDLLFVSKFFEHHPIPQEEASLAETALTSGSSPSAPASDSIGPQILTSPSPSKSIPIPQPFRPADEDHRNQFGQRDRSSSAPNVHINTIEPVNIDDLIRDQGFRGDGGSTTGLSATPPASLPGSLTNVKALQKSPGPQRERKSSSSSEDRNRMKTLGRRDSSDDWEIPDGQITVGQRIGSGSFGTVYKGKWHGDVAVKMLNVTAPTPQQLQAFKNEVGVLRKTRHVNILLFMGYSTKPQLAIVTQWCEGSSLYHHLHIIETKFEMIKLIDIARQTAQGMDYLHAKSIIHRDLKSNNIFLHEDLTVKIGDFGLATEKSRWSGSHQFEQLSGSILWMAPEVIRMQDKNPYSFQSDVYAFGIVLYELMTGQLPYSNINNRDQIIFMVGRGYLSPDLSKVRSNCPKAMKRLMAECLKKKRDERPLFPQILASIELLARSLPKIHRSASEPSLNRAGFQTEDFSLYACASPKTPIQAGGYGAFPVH

Row | SMILES | inhibition
4 | CNC(=O)c1cc(Oc2ccc3nc(NC(=O)Nc4cc(C(F)(F)F)cc(C(F)(F)F)c4)sc3c2)ccn1 | Dose-dependent effect

Tested on: U-251
Assay: Antiproliferative activity against human U251 cells assessed as cell growth at 10^-4 M after 48 hrs by sulforhodamine B assay
Format: functional
Settings: U-251, 48 h, read-out: Activity

Row | SMILES | growth at 100 µM
5 | CNC(=O)c1cc(Oc2ccc3nc(NC(=O)Nc4cc(C(F)(F)F)cc(C(F)(F)F)c4)sc3c2)ccn1 | -100%

Target: Hepatocyte growth factor receptor (Homo sapiens) (UniProt P08581)
Assay: Inhibition of human C-Met at 10 uM measured after 40 mins by scintillation counting
Settings: not given

Hepatocyte growth factor receptor (Homo sapiens), sequence (P08581 whole entry): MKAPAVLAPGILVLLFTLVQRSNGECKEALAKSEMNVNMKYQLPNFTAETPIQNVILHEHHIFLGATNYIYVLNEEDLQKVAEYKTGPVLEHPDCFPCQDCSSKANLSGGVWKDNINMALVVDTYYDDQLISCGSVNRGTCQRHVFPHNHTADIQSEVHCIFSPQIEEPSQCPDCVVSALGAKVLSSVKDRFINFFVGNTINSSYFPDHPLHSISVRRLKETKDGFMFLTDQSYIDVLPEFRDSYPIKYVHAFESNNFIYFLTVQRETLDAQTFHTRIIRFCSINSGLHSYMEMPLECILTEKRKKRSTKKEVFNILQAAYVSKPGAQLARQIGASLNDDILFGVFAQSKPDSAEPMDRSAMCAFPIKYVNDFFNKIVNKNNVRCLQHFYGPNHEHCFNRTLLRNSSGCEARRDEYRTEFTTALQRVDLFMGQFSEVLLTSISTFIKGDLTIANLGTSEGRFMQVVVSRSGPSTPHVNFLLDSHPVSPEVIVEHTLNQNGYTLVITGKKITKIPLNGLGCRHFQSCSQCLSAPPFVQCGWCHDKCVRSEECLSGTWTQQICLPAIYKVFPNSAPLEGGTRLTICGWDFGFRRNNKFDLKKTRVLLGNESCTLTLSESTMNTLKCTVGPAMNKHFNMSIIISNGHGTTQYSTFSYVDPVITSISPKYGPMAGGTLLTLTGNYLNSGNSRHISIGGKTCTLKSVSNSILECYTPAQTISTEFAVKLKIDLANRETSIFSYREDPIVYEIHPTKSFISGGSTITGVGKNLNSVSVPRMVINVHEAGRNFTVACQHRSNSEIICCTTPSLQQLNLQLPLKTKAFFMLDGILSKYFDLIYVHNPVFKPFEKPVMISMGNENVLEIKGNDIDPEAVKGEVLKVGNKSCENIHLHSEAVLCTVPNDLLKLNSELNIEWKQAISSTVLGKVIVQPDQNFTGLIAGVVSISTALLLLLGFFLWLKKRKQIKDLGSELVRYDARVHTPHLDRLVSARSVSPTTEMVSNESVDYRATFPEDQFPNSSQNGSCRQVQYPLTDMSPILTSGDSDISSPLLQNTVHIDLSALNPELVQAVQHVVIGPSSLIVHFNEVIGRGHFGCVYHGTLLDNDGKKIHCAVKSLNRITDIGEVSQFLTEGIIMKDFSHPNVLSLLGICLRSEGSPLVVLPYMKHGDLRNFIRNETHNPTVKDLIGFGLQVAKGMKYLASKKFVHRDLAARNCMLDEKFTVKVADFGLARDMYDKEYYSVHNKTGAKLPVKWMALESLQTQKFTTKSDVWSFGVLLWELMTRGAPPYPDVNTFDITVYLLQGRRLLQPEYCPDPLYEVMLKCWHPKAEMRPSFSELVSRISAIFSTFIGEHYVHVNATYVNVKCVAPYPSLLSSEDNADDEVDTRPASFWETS

Row | SMILES | inhibition
6 | CNC(=O)c1cc(Oc2ccc3nc(NC(=O)Nc4cc(C(F)(F)F)cc(C(F)(F)F)c4)sc3c2)ccn1 | < 40%

Tested on: MDA-MB-468
Assay: Antiproliferative activity against human MDA-MB-468 cells assessed as cell growth at […] after 48 hrs by sulforhodamine B assay
Format: functional
Settings: MDA-MB-468, 48 h, read-out: Activity

Row | SMILES | growth at 0.01 µM
7 | CNC(=O)c1cc(Oc2ccc3nc(NC(=O)Nc4cc(C(F)(F)F)cc(C(F)(F)F)c4)sc3c2)ccn1 | 84%

Tested on: not listed separately
Assay: Antiproliferative activity against human OVCAR5 cells assessed as growth inhibition after 48 hrs by sulforhodamine B assay
Format: functional
Settings: OVCAR-5, 48 h

Row | SMILES | GI50 | TGI
8 | CNC(=O)c1cc(Oc2ccc3nc(NC(=O)Nc4cc(C(F)(F)F)cc(C(F)(F)F)c4)sc3c2)ccn1 | 1.55 µM | 3.52 µM

Same assay, conditions: OVCAR-5, 48 h, read-out: LC50 (the source's name)

Row | SMILES | CC50
9 | CNC(=O)c1cc(Oc2ccc3nc(NC(=O)Nc4cc(C(F)(F)F)cc(C(F)(F)F)c4)sc3c2)ccn1 | 7.97 µM

Tested on: not listed separately
Assay: Antiproliferative activity against human Hs 578T cells assessed as cell growth at 10^-8 M after 48 hrs by sulforhodamine B assay
Format: functional
Settings: read-out: Activity

Row | SMILES | growth at 0.01 µM
10 | CNC(=O)c1cc(Oc2ccc3nc(NC(=O)Nc4cc(C(F)(F)F)cc(C(F)(F)F)c4)sc3c2)ccn1 | 96%

Tested on: not listed separately
Assay: Antiproliferative activity against human SF539 cells assessed as cell growth at 10^-8 M after 48 hrs by sulforhodamine B assay
Format: functional
Settings: SF-539, 48 h, read-out: Activity

Row | SMILES | growth at 0.01 µM
11 | CNC(=O)c1cc(Oc2ccc3nc(NC(=O)Nc4cc(C(F)(F)F)cc(C(F)(F)F)c4)sc3c2)ccn1 | 96%

Target: Fibroblast growth factor receptor 3 (Homo sapiens) (UniProt P22607)
Assay: Inhibition of human FGFR3 at 10 uM measured after 40 mins by scintillation counting
Settings: not given

Fibroblast growth factor receptor 3 (Homo sapiens), sequence (P22607 23-806 limits assumed): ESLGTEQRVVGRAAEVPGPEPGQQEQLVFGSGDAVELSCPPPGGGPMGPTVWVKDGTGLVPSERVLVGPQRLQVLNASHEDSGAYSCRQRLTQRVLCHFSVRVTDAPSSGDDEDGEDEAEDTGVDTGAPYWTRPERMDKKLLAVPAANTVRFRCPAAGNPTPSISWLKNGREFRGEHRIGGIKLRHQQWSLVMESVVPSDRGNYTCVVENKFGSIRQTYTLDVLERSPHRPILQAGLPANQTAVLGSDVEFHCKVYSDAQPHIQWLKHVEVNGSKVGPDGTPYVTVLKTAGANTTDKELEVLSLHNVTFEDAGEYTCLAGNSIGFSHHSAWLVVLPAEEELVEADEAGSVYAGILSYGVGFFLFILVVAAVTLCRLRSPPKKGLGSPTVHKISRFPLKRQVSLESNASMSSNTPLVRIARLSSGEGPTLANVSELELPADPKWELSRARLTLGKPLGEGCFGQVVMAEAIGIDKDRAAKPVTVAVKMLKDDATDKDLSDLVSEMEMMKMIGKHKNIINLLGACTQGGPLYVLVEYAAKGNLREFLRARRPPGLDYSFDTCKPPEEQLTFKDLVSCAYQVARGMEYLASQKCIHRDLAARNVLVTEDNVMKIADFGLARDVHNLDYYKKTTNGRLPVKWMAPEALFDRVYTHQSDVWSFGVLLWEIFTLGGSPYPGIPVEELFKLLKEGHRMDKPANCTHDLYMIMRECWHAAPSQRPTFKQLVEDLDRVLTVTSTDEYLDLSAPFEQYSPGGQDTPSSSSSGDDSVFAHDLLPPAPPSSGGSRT

Row | SMILES | inhibition
12 | CNC(=O)c1cc(Oc2ccc3nc(NC(=O)Nc4cc(C(F)(F)F)cc(C(F)(F)F)c4)sc3c2)ccn1 | < 40%

Tested on: not listed separately
Assay: Antiproliferative activity against human IGROV1 cells assessed as cell growth at 10^-8 M after 48 hrs by sulforhodamine B assay
Format: functional
Settings: IGROV-1, 48 h, read-out: Activity

Row | SMILES | growth at 0.01 µM
13 | CNC(=O)c1cc(Oc2ccc3nc(NC(=O)Nc4cc(C(F)(F)F)cc(C(F)(F)F)c4)sc3c2)ccn1 | 103%

Tested on: NCI-H226
Assay: Antiproliferative activity against human NCI-H226 cells assessed as cell growth at 10^-4 M after 48 hrs by sulforhodamine B assay
Format: functional
Settings: NCI-H226, 48 h, read-out: Activity

Row | SMILES | growth at 100 µM
14 | CNC(=O)c1cc(Oc2ccc3nc(NC(=O)Nc4cc(C(F)(F)F)cc(C(F)(F)F)c4)sc3c2)ccn1 | -52%

Target: Serine/threonine-protein kinase B-raf (Homo sapiens) (UniProt P15056)
Assay: Inhibition of human BRAF at 10 uM measured after 40 mins by scintillation counting
Settings: not given

Serine/threonine-protein kinase B-raf (Homo sapiens), sequence (P15056 whole entry): as the sequence (P15056 whole entry V600E) above, with E600V counted along it

Row | SMILES | inhibition
15 | CNC(=O)c1cc(Oc2ccc3nc(NC(=O)Nc4cc(C(F)(F)F)cc(C(F)(F)F)c4)sc3c2)ccn1 | < 40%

Tested on: not listed separately
Assay: Antiproliferative activity against human SW620 cells assessed as cell growth at 10^-6 M after 48 hrs by sulforhodamine B assay
Format: functional
Settings: SW-620, 48 h, read-out: Activity

Row | SMILES | growth at 1 µM
16 | CNC(=O)c1cc(Oc2ccc3nc(NC(=O)Nc4cc(C(F)(F)F)cc(C(F)(F)F)c4)sc3c2)ccn1 | 80%

Tested on: not listed separately
Assay: Antiproliferative activity against human HCC2998 cells assessed as cell growth at 10^-7 M after 48 hrs by sulforhodamine B assay
Format: functional
Settings: HCC 2998, 48 h, read-out: Activity

Row | SMILES | growth at 0.1 µM
17 | CNC(=O)c1cc(Oc2ccc3nc(NC(=O)Nc4cc(C(F)(F)F)cc(C(F)(F)F)c4)sc3c2)ccn1 | 105%

Tested on: NCI-H322M
Assay: Antiproliferative activity against human NCI-H322M cells assessed as cell growth at 10^-6 M after 48 hrs by sulforhodamine B assay
Format: functional
Settings: read-out: Activity

Row | SMILES | growth at 1 µM
18 | CNC(=O)c1cc(Oc2ccc3nc(NC(=O)Nc4cc(C(F)(F)F)cc(C(F)(F)F)c4)sc3c2)ccn1 | 73%

Target: Activin receptor type-1-like (Homo sapiens) (UniProt P37023)
Assay: Inhibition of human ALK1 at 10 uM measured after 40 mins by scintillation counting
Settings: not given

Row | SMILES | inhibition
19 | CNC(=O)c1cc(Oc2ccc3nc(NC(=O)Nc4cc(C(F)(F)F)cc(C(F)(F)F)c4)sc3c2)ccn1 | < 40%

Tested on: not listed separately
Assay: Antiproliferative activity against human OVCAR3 cells assessed as cell growth at 10^-7 M after 48 hrs by sulforhodamine B assay
Format: functional
Settings: OVCAR-3, 48 h, read-out: Activity

Row | SMILES | growth at 0.1 µM
20 | CNC(=O)c1cc(Oc2ccc3nc(NC(=O)Nc4cc(C(F)(F)F)cc(C(F)(F)F)c4)sc3c2)ccn1 | 97%

Tested on: not listed separately
Assay: Antiproliferative activity against human OVCAR3 cells assessed as cell growth at 10^-8 M after 48 hrs by sulforhodamine B assay
Format: functional
Settings: OVCAR-3, 48 h, read-out: Activity

Row | SMILES | growth at 0.01 µM
21 | CNC(=O)c1cc(Oc2ccc3nc(NC(=O)Nc4cc(C(F)(F)F)cc(C(F)(F)F)c4)sc3c2)ccn1 | 101%

Target: Tyrosine-protein kinase ABL1 (Homo sapiens) (UniProt P00519)
Assay: Inhibition of human ABL1 at 10 uM measured after 40 mins by scintillation counting
Settings: not given

Row | SMILES | inhibition
22 | CNC(=O)c1cc(Oc2ccc3nc(NC(=O)Nc4cc(C(F)(F)F)cc(C(F)(F)F)c4)sc3c2)ccn1 | < 40%

Tested on: not listed separately
Assay: Antiproliferative activity against human HOP92 cells assessed as cell growth at 10^-6 M after 48 hrs by sulforhodamine B assay
Format: functional
Settings: HOP-92, 48 h, read-out: Activity

Row | SMILES | growth at 1 µM
23 | CNC(=O)c1cc(Oc2ccc3nc(NC(=O)Nc4cc(C(F)(F)F)cc(C(F)(F)F)c4)sc3c2)ccn1 | -2%

Target: Proto-oncogene tyrosine-protein kinase Src (Homo sapiens) (UniProt P12931)
Assay: Inhibition of human C-Src at 10 uM measured after 40 mins by scintillation counting
Settings: not given

Proto-oncogene tyrosine-protein kinase Src (Homo sapiens), sequence (P12931 2-536 limits assumed): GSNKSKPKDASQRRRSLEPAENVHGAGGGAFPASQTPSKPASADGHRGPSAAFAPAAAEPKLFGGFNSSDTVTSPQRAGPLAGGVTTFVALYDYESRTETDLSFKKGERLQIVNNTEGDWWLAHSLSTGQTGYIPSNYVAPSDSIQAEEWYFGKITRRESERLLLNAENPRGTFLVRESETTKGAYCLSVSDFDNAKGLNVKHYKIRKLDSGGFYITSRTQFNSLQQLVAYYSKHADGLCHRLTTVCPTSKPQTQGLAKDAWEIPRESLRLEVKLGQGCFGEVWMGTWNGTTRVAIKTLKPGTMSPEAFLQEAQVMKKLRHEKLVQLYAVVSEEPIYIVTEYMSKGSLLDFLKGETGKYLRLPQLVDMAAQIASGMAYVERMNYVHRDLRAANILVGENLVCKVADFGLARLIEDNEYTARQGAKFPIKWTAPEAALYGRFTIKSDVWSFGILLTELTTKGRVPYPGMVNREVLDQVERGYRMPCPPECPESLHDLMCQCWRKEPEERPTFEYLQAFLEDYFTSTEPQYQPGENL

Row | SMILES | inhibition
24 | CNC(=O)c1cc(Oc2ccc3nc(NC(=O)Nc4cc(C(F)(F)F)cc(C(F)(F)F)c4)sc3c2)ccn1 | < 40%

Tested on: MDA-MB-435
Assay: Antiproliferative activity against human MDA-MB-435 cells assessed as cell growth at 10^-7 M after 48 hrs by sulforhodamine B assay
Format: functional
Settings: MDA-MB-435, 48 h, read-out: Activity

Row | SMILES | growth at 0.1 µM
25 | CNC(=O)c1cc(Oc2ccc3nc(NC(=O)Nc4cc(C(F)(F)F)cc(C(F)(F)F)c4)sc3c2)ccn1 | 95%

Tested on: SK-MEL-5
Assay: Antiproliferative activity against human SK-MEL-5 cells assessed as cell growth at 10^-8 M after 48 hrs by sulforhodamine B assay
Format: functional
Settings: SK-MEL-5, 48 h, read-out: Activity

Row | SMILES | growth at 0.01 µM
26 | CNC(=O)c1cc(Oc2ccc3nc(NC(=O)Nc4cc(C(F)(F)F)cc(C(F)(F)F)c4)sc3c2)ccn1 | 97%

Target: Aurora kinase A (Homo sapiens) (UniProt O14965)
Assay: Inhibition of human Aurora-A at 10 uM measured after 40 mins by scintillation counting
Settings: not given

Row | SMILES | inhibition
27 | CNC(=O)c1cc(Oc2ccc3nc(NC(=O)Nc4cc(C(F)(F)F)cc(C(F)(F)F)c4)sc3c2)ccn1 | < 40%

Tested on: not listed separately
Assay: Antiproliferative activity against human OVCAR3 cells assessed as cell growth at 10^-6 M after 48 hrs by sulforhodamine B assay
Format: functional
Settings: OVCAR-3, 48 h, read-out: Activity

Row | SMILES | growth at 1 µM
28 | CNC(=O)c1cc(Oc2ccc3nc(NC(=O)Nc4cc(C(F)(F)F)cc(C(F)(F)F)c4)sc3c2)ccn1 | 52%

Tested on: Serine/threonine-protein kinase B-raf (Homo sapiens), P15056 [V600E]
Assay: Inhibition of BRAF V600E mutant assessed as reduction in ERK phosphorylation in human A375P cells after 24 hrs by Western blot analysis
Format: cell-based
Settings: not given

Row | SMILES | inhibition
29 | CNC(=O)c1cc(Oc2ccc3nc(NC(=O)Nc4cc(C(F)(F)F)cc(C(F)(F)F)c4)sc3c2)ccn1 | Active

Tested on: 786-0
Assay: Antiproliferative activity against human 786-0 cells assessed as growth inhibition after 48 hrs by sulforhodamine B assay
Format: functional
Settings: 786-0, 48 h

Row | SMILES | GI50 | LC50 | TGI
30 | CNC(=O)c1cc(Oc2ccc3nc(NC(=O)Nc4cc(C(F)(F)F)cc(C(F)(F)F)c4)sc3c2)ccn1 | 1.42 µM | 5.76 µM | 2.86 µM
